Measured values published in ChEMBL document CHEMBL1201862, “PubChem BioAssay data set” (2004).
Activity calls are given as the source filed them.

Key:
[1] = target: T1, 1-phosphatidylinositol 4,5-bisphosphate phosphodiesterase gamma-1 (Homo sapiens, UniProt P19174); assay: Counterscreen for inhibitors of phospholipase C isozymes (PLC-B3): Fluorescence-based biochemical high throughput dose response assay to identify inhibitors of phospholipase C isozymes (PLC-gamma1).
T1 sequence (P19174 whole entry): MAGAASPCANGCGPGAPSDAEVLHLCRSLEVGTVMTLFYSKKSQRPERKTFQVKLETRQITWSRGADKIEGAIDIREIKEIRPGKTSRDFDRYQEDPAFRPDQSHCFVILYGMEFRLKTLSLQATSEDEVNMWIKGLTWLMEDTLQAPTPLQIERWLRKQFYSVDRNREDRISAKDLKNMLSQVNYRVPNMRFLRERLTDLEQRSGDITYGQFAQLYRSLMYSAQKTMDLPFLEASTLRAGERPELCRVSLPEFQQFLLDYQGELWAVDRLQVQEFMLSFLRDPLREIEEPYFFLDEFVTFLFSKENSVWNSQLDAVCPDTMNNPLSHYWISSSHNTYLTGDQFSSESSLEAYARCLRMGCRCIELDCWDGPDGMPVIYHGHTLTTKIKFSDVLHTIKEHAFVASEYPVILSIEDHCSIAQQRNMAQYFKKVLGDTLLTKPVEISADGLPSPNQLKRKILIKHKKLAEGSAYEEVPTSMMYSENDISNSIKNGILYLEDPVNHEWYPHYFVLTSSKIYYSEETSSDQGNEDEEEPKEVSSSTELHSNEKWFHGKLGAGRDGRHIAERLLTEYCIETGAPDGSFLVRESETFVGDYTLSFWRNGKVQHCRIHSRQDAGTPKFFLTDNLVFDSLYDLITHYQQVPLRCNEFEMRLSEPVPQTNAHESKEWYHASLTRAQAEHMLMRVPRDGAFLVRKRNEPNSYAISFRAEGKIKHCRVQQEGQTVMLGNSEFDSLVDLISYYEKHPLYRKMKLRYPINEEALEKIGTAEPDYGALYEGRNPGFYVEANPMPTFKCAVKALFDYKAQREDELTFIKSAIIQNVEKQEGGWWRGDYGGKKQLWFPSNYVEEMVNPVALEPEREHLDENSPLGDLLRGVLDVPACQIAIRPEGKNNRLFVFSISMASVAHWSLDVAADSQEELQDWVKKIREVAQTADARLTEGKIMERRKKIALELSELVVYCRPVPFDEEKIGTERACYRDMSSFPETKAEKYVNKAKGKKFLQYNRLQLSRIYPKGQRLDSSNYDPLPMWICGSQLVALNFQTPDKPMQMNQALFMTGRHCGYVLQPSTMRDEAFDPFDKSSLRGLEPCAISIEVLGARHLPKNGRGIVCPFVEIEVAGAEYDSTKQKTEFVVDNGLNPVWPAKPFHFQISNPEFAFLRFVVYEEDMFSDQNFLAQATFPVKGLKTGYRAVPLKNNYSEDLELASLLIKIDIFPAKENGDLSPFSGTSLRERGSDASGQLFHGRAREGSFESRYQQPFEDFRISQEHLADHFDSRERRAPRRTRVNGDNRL

[2] = target: T2, Rac GTPase-activating protein 1 (Homo sapiens, UniProt Q9H0H5); assay: MgcRacGAP GTPase-activating activity inhibitors, confirmation, biochemical, ADP Hunter fluorescence, primary and confirmatory (AID 624330); type: functional
T2 sequence (Q9H0H5 whole entry): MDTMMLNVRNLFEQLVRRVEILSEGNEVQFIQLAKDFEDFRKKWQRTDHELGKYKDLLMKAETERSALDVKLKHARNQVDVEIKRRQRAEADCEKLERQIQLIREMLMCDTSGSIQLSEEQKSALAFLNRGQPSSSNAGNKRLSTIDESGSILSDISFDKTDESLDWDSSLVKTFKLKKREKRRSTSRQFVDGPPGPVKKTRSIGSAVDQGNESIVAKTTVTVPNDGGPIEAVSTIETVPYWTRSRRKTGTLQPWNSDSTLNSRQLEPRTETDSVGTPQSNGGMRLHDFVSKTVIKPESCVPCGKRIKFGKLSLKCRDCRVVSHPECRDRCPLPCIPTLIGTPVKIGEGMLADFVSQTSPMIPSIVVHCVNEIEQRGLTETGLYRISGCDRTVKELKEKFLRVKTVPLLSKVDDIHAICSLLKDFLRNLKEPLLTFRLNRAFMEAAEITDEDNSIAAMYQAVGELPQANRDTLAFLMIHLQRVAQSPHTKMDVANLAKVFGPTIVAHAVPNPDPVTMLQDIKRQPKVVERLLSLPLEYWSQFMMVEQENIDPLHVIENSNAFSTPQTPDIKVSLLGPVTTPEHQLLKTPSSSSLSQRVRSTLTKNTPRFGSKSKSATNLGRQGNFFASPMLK

[3] = target: T3, Sentrin-specific protease 7 (Homo sapiens, UniProt Q9BQF6); type: functional;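 note: Luminescence-based dose-response confirmation of ultra-high-throughput screening hits, measuring inhibition of SENP7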
T3 sequence (Q9BQF6 whole entry): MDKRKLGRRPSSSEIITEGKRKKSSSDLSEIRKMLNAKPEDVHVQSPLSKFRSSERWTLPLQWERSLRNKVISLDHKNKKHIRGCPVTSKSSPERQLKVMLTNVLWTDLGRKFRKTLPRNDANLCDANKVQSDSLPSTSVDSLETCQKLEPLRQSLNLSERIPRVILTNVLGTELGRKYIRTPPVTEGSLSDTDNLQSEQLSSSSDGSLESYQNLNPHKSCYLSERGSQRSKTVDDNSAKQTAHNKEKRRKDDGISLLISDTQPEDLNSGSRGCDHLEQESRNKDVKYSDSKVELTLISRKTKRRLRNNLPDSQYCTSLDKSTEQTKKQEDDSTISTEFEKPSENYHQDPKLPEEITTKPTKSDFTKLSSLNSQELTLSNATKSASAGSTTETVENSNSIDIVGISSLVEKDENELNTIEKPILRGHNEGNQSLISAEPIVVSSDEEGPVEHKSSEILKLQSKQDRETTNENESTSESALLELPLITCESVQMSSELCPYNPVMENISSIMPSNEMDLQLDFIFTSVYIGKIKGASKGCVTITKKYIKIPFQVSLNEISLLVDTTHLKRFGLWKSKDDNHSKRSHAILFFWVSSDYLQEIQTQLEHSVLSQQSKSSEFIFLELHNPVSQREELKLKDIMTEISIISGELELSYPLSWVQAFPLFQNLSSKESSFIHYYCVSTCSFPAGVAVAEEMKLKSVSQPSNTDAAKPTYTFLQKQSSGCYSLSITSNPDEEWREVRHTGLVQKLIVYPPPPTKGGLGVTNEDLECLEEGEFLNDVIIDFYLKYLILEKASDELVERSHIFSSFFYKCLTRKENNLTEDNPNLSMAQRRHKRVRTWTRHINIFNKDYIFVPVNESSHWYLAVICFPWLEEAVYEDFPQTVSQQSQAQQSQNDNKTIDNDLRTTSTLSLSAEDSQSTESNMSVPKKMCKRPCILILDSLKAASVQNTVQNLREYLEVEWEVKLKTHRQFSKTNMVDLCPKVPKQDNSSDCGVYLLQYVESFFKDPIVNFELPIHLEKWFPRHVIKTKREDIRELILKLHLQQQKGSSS

Structure (SMILES) | IC50 [1] | IC50 [2] | IC50 [3]
O=C(NN1C(=O)CSC1=S)C(=O)NN1C(=O)CSC1=S | 4.36 µM (active) | – | –
O=C1NC(=S)S/C1=C\C=C\c1ccc([N+](=O)[O-])o1 | > 122 µM (inactive) | 37.7 µM (active) | –
Cc1ccc2[nH]c(/C(C#N)=C/c3ccc(O)c(O)c3)nc2c1 | – | 22.3 µM (active) | 9.9 µM (active)
CN(C)S(=O)(=O)Oc1cccc(C(=O)Nc2ccc(Cl)c(Cl)c2)c1 | – | – | 5.38 µM (active)
